Laboratory results from PubChem BioAssay AID1963854 (Molecular Pharmacology Branch, DTP, NCI, 2024).

Tested on: 186277-243-T-J2-PDC complex spheroid viability
Assay: Anticancer human tumor 186277-243-T-J2-PDC patient-derived colon adenocarcinoma cell line growth inhibition [POLQ]
Conditions: for IC50: curve of first compound; for viability, T/C: stronger effect = lower value
Procedure, shortened: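 PDC + HUVEC + MSC complex spheroids; POLQ inhibitors ± partner drugs; top conc. at/near clinical Cmax, else 10 microM (SN-38 1 microM), half-log dilutions; 37 degrees C, 5% CO2.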

[1] = second compound 0.0316 µM, first compound 0.0316 µM
[2] = second compound 0.0316 µM, first compound 0.1 µM
[3] = second compound 0.0316 µM, first compound 0.316 µM
[4] = second compound 0.0316 µM, first compound 1 µM
[5] = second compound 0.0316 µM, first compound 3.16 µM
[6] = second compound 0.0316 µM, first compound 10 µM
[7] = second compound 0.1 µM, first compound 0.0316 µM
[8] = second compound 0.1 µM, first compound 0.1 µM
[9] = second compound 0.1 µM, first compound 0.316 µM
[10] = second compound 0.1 µM, first compound 1 µM
[11] = second compound 0.1 µM, first compound 3.16 µM
[12] = second compound 0.1 µM, first compound 10 µM
[13] = second compound 0.316 µM, first compound 0.0316 µM
[14] = second compound 0.316 µM, first compound 0.1 µM
[15] = second compound 0.316 µM, first compound 0.316 µM
[16] = second compound 0.316 µM, first compound 1 µM
[17] = second compound 0.316 µM, first compound 3.16 µM
[18] = second compound 0.316 µM, first compound 10 µM
[19] = second compound 1 µM, first compound 0.0316 µM
[20] = second compound 1 µM, first compound 0.1 µM
[21] = second compound 1 µM, first compound 0.316 µM
[22] = second compound 1 µM, first compound 1 µM
[23] = second compound 1 µM, first compound 3.16 µM
[24] = second compound 1 µM, first compound 10 µM
[25] = second compound 3.16 µM, first compound 0.0316 µM
[26] = second compound 3.16 µM, first compound 0.1 µM
[27] = second compound 3.16 µM, first compound 0.316 µM
[28] = second compound 3.16 µM, first compound 1 µM
[29] = second compound 3.16 µM, first compound 3.16 µM
[30] = second compound 3.16 µM, first compound 10 µM
[31] = second compound 10 µM, first compound 0.0316 µM
[32] = second compound 10 µM, first compound 0.1 µM
[33] = second compound 10 µM, first compound 0.316 µM
[34] = second compound 10 µM, first compound 1 µM
[35] = second compound 10 µM, first compound 3.16 µM
[36] = second compound 10 µM, first compound 10 µM
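Note: spheroids exposed to compounds for seven days.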
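Throughout, for viability, T/C: 100% = DMSO vehicle control viability.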

`O=c1[nH]cc(F)c(=O)[nH]1` + Nc1ccc(C#CCN(C(=O)Cc2ncc(C(F)(F)F)cc2C(F)(F)F)c2ccc(F)cc2)nn1 gave an IC50 (second compound 0.0316 µM) of over 10 µM, an IC50 (second compound 0.1 µM) of over 10 µM and an IC50 (second compound 0.316 µM) of over 10 µM. It also gave an IC50 (second compound 1 µM) of over 10 µM, an IC50 (second compound 3.16 µM) of over 10 µM and an IC50 (second compound 10 µM) of over 10 µM. The viability, T/C [1] was 102%, the viability, T/C [2] was 94.3% and the viability, T/C [3] was 103%. For the same compound, the viability, T/C [4] was 102%, the viability, T/C [5] was 97.4% and the viability, T/C [6] was 64.8%. It also gave a viability, T/C [7] of 97.7%, a viability, T/C [8] of 112% and a viability, T/C [9] of 97.4%. For the same compound, the viability, T/C [10] was 107%, the viability, T/C [11] was 103% and the viability, T/C [12] was 67.3%. It also gave a viability, T/C [13] of 95.9%, a viability, T/C [14] of 103% and a viability, T/C [15] of 101%. The viability, T/C [16] was 88.3%, the viability, T/C [17] was 97.3% and the viability, T/C [18] was 65.6%. For the same compound, the viability, T/C [19] was 98.8%, the viability, T/C [20] was 92.6% and the viability, T/C [21] was 109%. For the same compound, the viability, T/C [22] was 87.6%, the viability, T/C [23] was 107% and the viability, T/C [24] was 63.1%. For the same compound, the viability, T/C [25] was 103%, the viability, T/C [26] was 96.5% and the viability, T/C [27] was 109%. The viability, T/C [28] was 106%, the viability, T/C [29] was 104% and the viability, T/C [30] was 61%. The viability, T/C [31] was 109%, the viability, T/C [32] was 106% and the viability, T/C [33] was 101%. It also gave a viability, T/C [34] of 102%, a viability, T/C [35] of 90.6% and a viability, T/C [36] of 52.4%.
For `CCc1cc2c(N3CCc4c(cc(Cn5ccnc5)cc4-c4cn(C)nc4C(F)(F)F)C3=O)cc(C)nc2c(OC)n1` + Nc1ccc(C#CCN(C(=O)Cc2ncc(C(F)(F)F)cc2C(F)(F)F)c2ccc(F)cc2)nn1, the IC50 (second compound 0.0316 µM) was over 10 µM, the IC50 (second compound 0.1 µM) was over 10 µM and the IC50 (second compound 0.316 µM) was over 10 µM. It also gave an IC50 (second compound 1 µM) of over 10 µM, an IC50 (second compound 3.16 µM) of over 10 µM and an IC50 (second compound 10 µM) of over 10 µM. For the same compound, the viability, T/C [1] was 97%, the viability, T/C [2] was 104% and the viability, T/C [3] was 96%. For the same compound, the viability, T/C [4] was 117%, the viability, T/C [5] was 119% and the viability, T/C [6] was 95.8%. For the same compound, the viability, T/C [7] was 95.3%, the viability, T/C [8] was 89.4% and the viability, T/C [9] was 96.9%. The viability, T/C [10] was 108%, the viability, T/C [11] was 124% and the viability, T/C [12] was 97.2%. For the same compound, the viability, T/C [13] was 107%, the viability, T/C [14] was 89.2% and the viability, T/C [15] was 96.6%. The viability, T/C [16] was 101%, the viability, T/C [17] was 89.7% and the viability, T/C [18] was 86%. It also gave a viability, T/C [19] of 95.1%, a viability, T/C [20] of 106% and a viability, T/C [21] of 101%. The viability, T/C [22] was 98.7%, the viability, T/C [23] was 114% and the viability, T/C [24] was 90.6%. The viability, T/C [25] was 104%, the viability, T/C [26] was 88.4% and the viability, T/C [27] was 91.8%. For the same compound, the viability, T/C [28] was 87.6%, the viability, T/C [29] was 109% and the viability, T/C [30] was 87.3%. For the same compound, the viability, T/C [31] was 102%, the viability, T/C [32] was 95.5% and the viability, T/C [33] was 94.1%. It also gave a viability, T/C [34] of 106%, a viability, T/C [35] of 95.6% and a viability, T/C [36] of 76.2%.
